Data taken from BindingDB's records for doi:10.1021/cb500009r (Shanghai Center For Systems Biomedicine, 2014).

Assays:
[1] = biological target: T1, Dopa decarboxylase (Aromatic L-amino acid decarboxylase), isoform CRA_a (Homo sapiens, UniProt Q53Y41); test: DDC-MDH-PEPC-Linked assay; conditions: pH 8.05; 37 °C
T1 sequence (Q53Y41 whole entry): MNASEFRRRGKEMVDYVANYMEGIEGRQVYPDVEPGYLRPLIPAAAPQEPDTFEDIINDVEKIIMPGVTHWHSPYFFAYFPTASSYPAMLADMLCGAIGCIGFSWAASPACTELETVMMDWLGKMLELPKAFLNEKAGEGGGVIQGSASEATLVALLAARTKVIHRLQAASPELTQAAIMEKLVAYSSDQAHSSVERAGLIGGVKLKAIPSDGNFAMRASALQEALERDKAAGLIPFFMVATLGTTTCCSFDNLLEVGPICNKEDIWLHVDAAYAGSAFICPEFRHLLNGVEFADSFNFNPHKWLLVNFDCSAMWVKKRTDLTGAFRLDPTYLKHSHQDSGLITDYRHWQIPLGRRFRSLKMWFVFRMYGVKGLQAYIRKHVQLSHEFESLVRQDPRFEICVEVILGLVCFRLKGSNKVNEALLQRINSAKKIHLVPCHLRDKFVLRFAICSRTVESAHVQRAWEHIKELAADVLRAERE
Description: To the wells of a 384-well polypropylene plate, 1 µL DMSO (control) or test compounds at indicated concentrations were added, followed by the addition of 24.5 µL enzyme mix [50 mM Tris-HCl, 50 mM NaCl, 0.015% (w/v) BSA, 5 mM MgCl2, 2 mM β-mercaptoethanol, 760 µM NADH, 330 nM PEPC, 100 µM PLP and 284 nM hDDC, pH 8.05], and 24.5 µL substrate mix [50 mM Tris-HCl containing 50 mM NaCl, 0.015% (w/v) BSA, 5 mM MgCl2, 2 mM β-mercaptoethanol, 10 mM PPPA, 0.49 U MDH and 1.5 mM L-DOPA, pH 8.05]. The plate was sealed and incubated for 1 h in 37 °C. The OD was taken at 340 nm.

[2] = biological target: Cystathionine gamma-lyase (Homo sapiens, UniProt P32929); test: Human CSE enzyme assay; conditions: pH 7; 37 °C
Description: 500 nM hCSE in optimal buffer (50 mM Hepes, pH 7.0; final concentration) was incubated with compound for 45 min in the 192-tandem-well plate before adding substrate (5 mM L-cysteine; final concentration). The reaction was then incubated at 37 °C for 60 min before the absorbance at 413 nm of DTNB was measured.

Sequence of Cystathionine gamma-lyase (P32929 whole entry): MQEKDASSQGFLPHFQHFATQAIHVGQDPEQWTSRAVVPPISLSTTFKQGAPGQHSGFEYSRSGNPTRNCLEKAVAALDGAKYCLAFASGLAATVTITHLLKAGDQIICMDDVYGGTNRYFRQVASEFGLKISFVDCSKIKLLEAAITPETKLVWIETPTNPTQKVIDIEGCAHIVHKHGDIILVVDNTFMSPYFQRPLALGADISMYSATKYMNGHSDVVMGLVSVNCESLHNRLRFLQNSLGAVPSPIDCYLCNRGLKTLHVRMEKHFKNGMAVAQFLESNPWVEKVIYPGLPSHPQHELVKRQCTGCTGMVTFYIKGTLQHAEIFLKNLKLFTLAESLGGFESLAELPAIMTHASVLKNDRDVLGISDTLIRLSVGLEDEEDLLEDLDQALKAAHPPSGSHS

Row | Compound | IC50 [1] [µM] | IC50 [2] [µM]
1 | COc1cc(CCCc2cc(C(CCc3ccc(O)c(OC)c3)c3cc(OC)c(OC)cc3O)c(OC)cc2O)ccc1O (stereo not drawn) [Euonydiarylpropane A (1)] | 100 | > 200
2 | COc1cc(CC=C(c2cc(O)c(OC)cc2O)c2cc(CCCc3ccc(O)c(OC)c3)c(O)cc2OC)ccc1O [Combrequinone B (6)] | 21.6 | > 200
3 | COc1cc(CC=C(c2cc(O)c(OC)cc2O)c2c(OC)cc3c(c2O)CCC(c2ccc(O)c(O)c2)O3)ccc1O (stereo not drawn) [(+)-Euonyquinone C (9)] | 100 | > 200
4 | COc1ccc(CCCc2ccc(O)c(OC)c2)c(O)c1 [1-(2-hydroxy-4-meth-oxyphenyl)-3-(4-hydroxy-3-methoxyphenyl)propane (12)] | > 200 | > 200
5 | COc1cc(CCCc2ccc(OC)c(O)c2OC)ccc1O [Broussonin F (11)] | > 200 | > 200
6 | COc1cc(CCCc2cc(C(CCc3ccc(O)c(OC)c3)c3cc(O)c(OC)cc3OC)c(O)cc2OC)ccc1O (stereo not drawn) [Euonydiarylpropane D (4)] | > 200 | > 200
7 | COc1cc(CCCc2cc(C(CCc3ccc(O)c(OC)c3)c3cc(OC)c(OC)cc3O)c(O)cc2OC)ccc1O (stereo not drawn) [Euonydiarylpropane B (2)] | 100 | > 200

Next, values leading:

Row | IC50 [1] [µM] | IC50 [2] [µM] | Compound
8 | 1200 | 3000 | C[C@](N)(Cc1ccc(O)c(O)c1)C(=O)O [SMR000059170]
9 | > 200 | > 200 | COc1cc(OC)c2c(c1)O[C@@H](c1ccc(O)c(O)c1)CC2 [(2R)-3′,4′-Dihydroxy-5,7-methoxyflavan (14)]
10 | 11.5 | > 200 | COC1=CC(=O)C(CC(=O)Cc2ccc(O)c(OC)c2)=C(c2cc(CCCc3ccc(O)c(OC)c3)c(OC)cc2O)C1=O [Euonyquinone A (5)]
11 | > 200 | > 200 | COc1ccc(C(CCc2ccc(O)c(OC)c2)c2cc(CCCc3ccc(O)c(OC)c3)c(O)cc2OC)c(O)c1 (stereo not drawn) [Euonydiarylpropane C (3)]
12 | > 200 | > 200 | COc1ccc2c(c1)O[C@@H](c1ccc(O)c(O)c1)CC2 [(2R)-3′,4′-Dihydroxy-7-methoxyflavan (13)]
13 | > 200 | > 200 | COc1cc(CCCc2ccc(O)cc2OC)ccc1O [Griffithane B (10)]
14 | 50 | > 200 | COc1cc(CC=C(c2cc(O)c(OC)cc2O)c2c(OC)cc3c(c2O)CCC(c2ccc(O)c(OC)c2)O3)ccc1O (stereo not drawn) [Euonyquinone B (7)]
